Values after ≈ are worked out from the molar mass of the structure shown. Where two headings read alike, the source gives them in different places.
Tests used:
[1] = type: physicochemical
Excerpt: It is presumed that thermal decomposition of these trioxolanes was initiated by formation of a 1,5 diradical produced by homolytic cleavage of the peroxide bond of the trioxolane ring.

neuroblastoma cell line = assay: toxicity in a neuroblastoma cell line; type: cell-based
P. falciparum = assay: in vitro potency against P. falciparum (strain not stated); type: cell-based; conditions: Plasmodium falciparum
[2] = tested on: P. falciparum NF54 strain (sensitive to standard antimalarials); assay: semiautomated microdilution assay, [3H]-hypoxanthine incorporation, NF54 strain; type: cell-based, Plasmodium falciparum
Method in brief: (§1)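 Compounds were tested against intraerythrocytic parasites taken from asynchronous stock cultures, using semiautomated microdilution. IC50 values were estimated by logit regression analysis.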

[3] = Rane test, single 640 mg/kg doses in mice; type: in vivo
[4] = tested on: ANKA strain of Plasmodium berghei; assay: single dose ED50/ED90/ED99 determinations in infected mice; type: in vivo; conditions: single dose po in SSV, mice, percent reduction in parasitemia on day three post-infection
Method in brief: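 Mice (Moro SPF or NMRI, n=3 per group) infected with P. berghei ANKA received a single dose on day 1 post-infection, vehicle 0.5% CMC/0.5% benzyl alcohol/0.4% Tween 80/0.9% NaCl in water. Read-out is percent reduction in parasitemia on day 3; ED values by nonlinear fitting.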

[5] = tested on: Schistosoma mansoni adult schistosomes (49-day-old); assay: effect on adult schistosomes (49-day-old) in mice; type: in vivo
Protocol: Mice were infected with 100 Schistosoma mansoni cercariae […]. Each group was treated per os with OZ compounds at single doses of 200, 400, and 600 mg/kg. […] All groups were killed 4 weeks after treatment and the liver and intestine were removed and separated. The liver and intestine were compressed and alive male and female worms could be seen and counted.

[6] = tested on: P. falciparum K1 strain (Thailand resistant to chloroquine); assay: semiautomated microdilution assay, [3H]-hypoxanthine incorporation, K1 strain; type: cell-based, Plasmodium falciparum; conditions: K1 strain, 72 h incubation
Method in brief: as §1

[7] = tested on: ANKA strain of P. berghei; assay: single dose STI in vivo screen in infected mice; set-up: species or system Plasmodium berghei
Method in brief: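 Groups of 3-5 Moro SPF or NMRI mice infected with the ANKA strain of P. berghei received a single dose of trioxolane on day one post-infection. The compound was given in 3% ethanol and 7% Tween 80 or in SSV (0.5% w/v CMC, 0.5% v/v benzyl alcohol, 0.4% v/v Tween 80, 0.9% w/v sodium chloride in water). Antimalarial activity was scored as percent reduction in parasitemia on day three and as survival time versus untreated controls. Survival to day 30 counted as cure.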

[8] = tested on: parasitemia (malaria infection); assay: onset of action and recrudescence experiments; type: in vivo; conditions: single 100 mg/kg po (SSV) on day +3 post-infection; recrudescence = >5% parasitemia; followed up to 60 days; (n/5) = animals
Protocol: The onset of drug action was determined after a single fixed dose of 100 mg/kg (SSV vehicle) po to groups of five animals on day +3 post-infection (day 0).

[9] = tested on: Schistosoma mansoni 21-day-old schistosomules; assay: effect on 21-day-old schistosomules in mice; type: in vivo; conditions: single 200 mg/kg per os, female mice
Protocol: All groups were killed 4 weeks after treatment and the liver and intestine were removed and separated. The liver and intestine were compressed and alive male and female worms could be seen and counted. The effect of the compounds was evaluated by mean total and female worm burden.

dosing in rats = type: in vivo; conditions: rat
Excerpt: (§2) Artesunate is listed as a reference compound.

[10] = tested on: Schistosoma mansoni adult schistosomes (49-day-old); assay: effect on adult schistosomes (49-day-old) in mice; type: in vivo; conditions: 1 × 600 mg/kg sc.
dosing in dogs = type: in vivo; conditions: dog
Excerpt: as §2

C[C@@H]1CC[C@H]2[C@@H](C)C(=O)O[C@@H]3O[C@@]4(C)CC[C@@H]1[C@]32OO4 [Artemisinin, artemisinin]
Tm, dec (DSC thermal stability) [1]: 181 °C

C1CCC2(CC1)OOC1(O2)C2CC3CC(C2)CC1C3 (stereo not drawn) [OZ03]
toxicity in a neuroblastoma cell line (neuroblastoma cell line): no toxicity | IC50 (P. falciparum): 1 to 5 ng/mL (≈ 3.78 to 18.9 nM) | IC50 ([2]; Plasmodium falciparum, NF54, 72 h, read-out: IC50 (ng/ml) NF54): 1.6 ng/mL (≈ 6.05 nM) | toxicity at single 640 mg/kg doses in mice in the Rane test [3]: no toxicity

O=C1CCC2(CC1)OOC1(O2)C2CC3CC(C2)CC1C3 (stereo not drawn) [OZ05]
ED50 ([4]; Plasmodium berghei, read-out: ED50): 8.7 mg/kg | ED90 [4]: 12 mg/kg | ED99 [4]: 15 mg/kg | toxicity in a neuroblastoma cell line (neuroblastoma cell line): no toxicity | adult worms at day 49, per os 200 mg/kg, DEAD WORM (%) ([5]; single 200 mg/kg per os): 12% | adult worms at day 49, per os 400 mg/kg, DEAD WORM (%) ([5]; single 400 mg/kg per os): 32% | adult worms at day 49, per os 600 mg/kg, DEAD WORM (%) ([5]; single 600 mg/kg per os): 58% | IC50 (P. falciparum): 1 to 5 ng/mL (≈ 3.59 to 18 nM) | IC50 ([6]; Plasmodium falciparum, read-out: IC50 (ng/ml) K1): 0.19 ng/mL (≈ 0.683 nM) | Activity (%) po ([7]; percent reduction in parasitemia day 3 post-infection, single 10 mg/kg po in 3% ethanol and 7% Tween 80, mice): 94% | Activity (%) sc ([7]; percent reduction in parasitemia day 3 post-infection, single 10 mg/kg sc in 3% ethanol and 7% Tween 80, mice): 99.7% | Activity (%) SSVpo ([7]; percent reduction in parasitemia day 3 post-infection, single po dose in standard suspending vehicle (SSV), mice): 74% | Survival (days) po ([7]; single 10 mg/kg po in 3% ethanol and 7% Tween 80, untreated control 5.6 ± 0.3): 7.1 days | Survival (days) sc ([7]; single 10 mg/kg sc in 3% ethanol and 7% Tween 80, untreated control 5.6 ± 0.3): 8.6 days | Survival (days) SSVpo ([7]; single po dose in SSV, untreated control 5.6 ± 0.3): 6.2 days | toxicity at single 640 mg/kg doses in mice in the Rane test [3]: no toxicity

Cc1ccc(S(=O)(=O)O)cc1.O=C(C[C@H]1CC[C@]2(CC1)OO[C@]1(O2)C2CC3CC(C2)CC1C3)N1CCNCC1 [OZ279]
ED50 [4]: 0.63 mg/kg | ED90 [4]: 1.8 mg/kg | ED99 [4]: 3.9 mg/kg | Time of Recrudescence [8]: 15.0 days | % reduction of adult worms growth at day 49 after per os application of 400 mg/kg, TWR (%) ([5]; single 400 mg/kg per os): 0% | adult worms at day 49, per os 400 mg/kg, DEAD WORM (%) ([5]; single 400 mg/kg per os): 12% | % reduction of adult worms growth at day 49 after per os application of 600 mg/kg, TWR (%) ([5]; single 600 mg/kg per os): 33% | adult worms at day 49, per os 600 mg/kg, DEAD WORM (%) ([5]; single 600 mg/kg per os): 20% | IC50 (ng/ml) NF54 ([2]; NF54 strain, 72 h incubation): 0.24 ng/mL | IC50 (ng/ml) K1 [6]: 0.21 ng/mL | % reduction of schistosomule growth at day 21 after per os application of 200 mg/kg, FWR (%) [9]: 88% | % reduction of schistosomule growth at day 21 after per os application of 200 mg/kg, TWR (%) [9]: 86% | IV t1/2 (10 mg/kg) (dosing in rats; IV 10 mg/kg): 1.675 h | Oral Bioavailability 10 mg/kg (dosing in rats; oral 10 mg/kg): 37.2% | Oral Bioavailability 25 mg/kg (dosing in rats; oral 25 mg/kg): 71.1% | Oral t1/2 (25 mg/kg) (dosing in rats; oral 25 mg/kg): 2.78 h | % reduction of adult worms growth, 1 × 600 sc., TWR (%) [10]: 21% | adult worms, 1 × 600 sc., DEAD WORM (%) [10]: 27% | Survival (days) 3 mg/kg SSV po ([7]; single 3 mg/kg po in SSV): 8.4 days | Survival (days) 10 mg/kg SSV po ([7]; single 10 mg/kg po in SSV): 9.3 days | IV t1/2 (10 mg/kg) (dosing in dogs; IV 10 mg/kg): 2.958 h | Oral t1/2 (10 mg/kg) (dosing in dogs; oral 10 mg/kg): 3.255 h | Oral Bioavailability 10 mg/kg (dosing in dogs; oral 10 mg/kg, OZ 279, OZ 256, OZ 209 values flagged (V)): 32.8% | Oral Bioavailability 25 mg/kg (dosing in dogs; oral 25 mg/kg, OZ 279, OZ 256, OZ 209 values flagged (V)): 55.7%
